The record followed here is patent publication US20230279025A1, “KRAS G12D INHIBITORS” (Mirati Therapeutics, Inc., priority 2020, published 2023).

The target of this test is KRas G12D (Homo sapiens (Human), UniProt P01116, G12D). As to the kind of experiment: KRas G12D Binding Assay (TR-FRET displacement of Cy5 labelled tracer). Particulars: GDP-loaded KRAS G12D (amino acids 1:169), 60 minute incubation at 22° C. How it is done: After a 60 minute incubation at 22° C., the reaction was measured using a PerkinElmer EnVision multimode plate reader via TR-FRET dual wavelength detection, and the percent of control (POC) calculated using a ratiometric emission factor. […] The POC values were fit to a 4-parameter logistic curve and the IC50 value was determined as the concentration where the curve crosses 50 POC.
ND stands for “not determined.”

The structures appear in SMILES notation. Where a name gives a salt, the structure may show the parent alone.

Chain of KRas G12D (P01116 other isoform, or with tags, fused parts or gaps G12D): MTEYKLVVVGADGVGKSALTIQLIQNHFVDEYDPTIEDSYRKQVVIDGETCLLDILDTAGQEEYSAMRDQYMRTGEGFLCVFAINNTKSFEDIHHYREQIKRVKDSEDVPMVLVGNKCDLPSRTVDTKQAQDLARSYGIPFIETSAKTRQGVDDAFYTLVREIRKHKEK

As to `O[C@H]1CN2CCC[C@]2(COc2nc(N3CC4CCC(C3)N4)c3cnc(-c4cccc5cccc(Cl)c45)c(F)c3n2)C1` (stereo in doubt) [Example 224, 7a-(((4-((1R,5S)-3,8-diazabicyclo[3.2.1]octan-3-yl)-7-(8-chloronaphthalen-1-yl)-8-fluoropyrido[4,3-d]pyrimidin-2-yl)oxy)methyl)hexahydro-1H-pyrrolizin-2-ol bis-hydrochloride], the IC50 (as a rule, the concentration that inhibits the measured activity by half) was 27 nM.

The molecule `CN1CC[C@@H](Oc2nc(N3C[C@H]4CC[C@@H](C3)N4)c3cnc(-c4cccc5cccc(Cl)c45)c(F)c3n2)C1` [Example 358, 4-((1R,5S)-3,8-diazabicyclo[3.2.1]octan-3-yl)-7-(8-chloronaphthalen-1-yl)-8-fluoro-2-(((R)-1-methylpyrrolidin-3-yl)oxy)pyrido[4,3-d]pyrimidine] came in with an IC50 of 1980 nM.

As to `Fc1c(-c2cnccc2C(F)(F)F)ncc2c(N3CC4CCC(C3)N4)nc(OC[C@@]34CCCN3C[C@H](F)C4)nc12` (stereo in doubt) [Example 415, 4-((1R,5S)-3,8-diazabicyclo[3.2.1]octan-3-yl)-8-fluoro-2-((2-fluorotetrahydro-1H-pyrrolizin-7a(5H)-yl)methoxy)-7-(4-(trifluoromethyl)pyridin-3-yl)pyrido[4,3-d]pyrimidine], the 50% inhibitory concentration (IC50) worked out at 2580 nM.

For `Fc1cccc(-c2ncc3c(N4C[C@H]5CC[C@@H](C4)N5)nc(OCC45CCCN4CCC5)nc3c2F)c1C1CC1` [Example 304, 4-((1R,5S)-3,8-diazabicyclo[3.2.1]octan-3-yl)-7-(2-cyclopropyl-3-fluorophenyl)-8-fluoro-2-((hexahydro-1H-pyrrolizin-7a-yl)methoxy)pyrido[4,3-d]pyrimidine], the IC50 stood at 29.2 nM.

In turn, `Fc1c(-c2ccccc2C(F)F)ncc2c(N3C[C@H]4CC[C@@H](C3)N4)nc(OCC34CCCN3CCC4)nc12` [Example 293, 4-((1R,5S)-3,8-diazabicyclo[3.2.1]octan-3-yl)-7-(2-(difluoromethyl)phenyl)-8-fluoro-2-((hexahydro-1H-pyrrolizin-7a-yl)methoxy)pyrido[4,3-d]pyrimidine] returned an IC50 of 692 nM.

As to `Fc1c(-c2cccc3cccc(F)c23)ncc2c(N3C[C@H]4CC[C@@H](C3)N4)nc(OCC34CCCN3CCC4)nc12` [Example 234, 4-((1R,5S)-3,8-diazabicyclo[3.2.1]octan-3-yl)-8-fluoro-7-(8-fluoronaphthalen-1-yl)-2-((tetrahydro-1H-pyrrolizin-7a(5H)-yl)methoxy)pyrido[4,3-d]pyrimidine], the IC50 came out at 5.9 nM.

The molecule `CCC(C)c1ccccc1-c1ncc2c(N3C[C@H]4CC[C@@H](C3)N4)nc(OCC34CCCN3CCC4)nc2c1F` (stereo partly drawn) [Example 300, 4-((1R,5S)-3,8-diazabicyclo[3.2.1]octan-3-yl)-7-(2-(sec-butyl)phenyl)-8-fluoro-2-((hexahydro-1H-pyrrolizin-7a-yl)methoxy)pyrido[4,3-d]pyrimidine] returned an IC50 of 768 nM.

Regarding `Cc1cc2[nH]ccc2c(-c2ncc3c(N4C[C@H]5CC[C@@H](C4)N5)nc(OCC45CCCN4CCC5)nc3c2F)c1C` [Example 250, 4-((1R,5S)-3,8-diazabicyclo[3.2.1]octan-3-yl)-7-(5,6-dimethyl-1H-indol-4-yl)-8-fluoro-2-((hexahydro-1H-pyrrolizin-7a-yl)methoxy)pyrido[4,3-d]pyrimidine], the IC50 amounted to 28.2 nM.

With `O=Cc1cc(CCOc2nc(N3C[C@H]4CC[C@@H](C3)N4)c3cnc(-c4cccc5cccc(Cl)c45)c(F)c3n2)ccc1O` [Example 62, 5-(2-((4-((1R,5S)-3,8-diazabicyclo[3.2.1]octan-3-yl)-7-(8-chloronaphthalen-1-yl)-8-fluoropyrido[4,3-d]pyrimidin-2-yl)oxy)ethyl)-2-hydroxybenzaldehyde], the IC50 came to 8410 nM.

The molecule `Cc1cccc(-c2ncc3c(N4C[C@H]5CC[C@@H](C4)N5)nc(OCC45CCCN4CCC5)nc3c2F)c1C` [Example 275, 4-((1R,5S)-3,8-diazabicyclo[3.2.1]octan-3-yl)-7-(2,3-dimethylphenyl)-8-fluoro-2-((hexahydro-1H-pyrrolizin-7a-yl)methoxy)pyrido[4,3-d]pyrimidine] displayed an IC50 of 53.8 nM.

The molecule `O=C(OC[C@H]1CC[C@@]2(COc3nc(N4CC5CCC(C4)N5)c4cnc(-c5cccc6cccc(Cl)c56)c(F)c4n3)CCCN12)N1CCCC1` [Example 443, ((3R,7aR)-7a-(((4-(3,8-diazabicyclo[3.2.1]octan-3-yl)-7-(8-chloronaphthalen-1-yl)-8-fluoropyrido[4,3-d]pyrimidin-2-yl)oxy)methyl)hexahydro-1H-pyrrolizin-3-yl)methyl pyrrolidine-1-carboxylate] returned an IC50 of 3.2 nM.

`CC(C)c1ncccc1-c1ncc2c(N3C[C@H]4CC[C@@H](C3)N4)nc(OC[C@@]34CCCN3C[C@H](F)C4)nc2c1F` [Example 421, 4-((1R,5S)-3,8-diazabicyclo[3.2.1]octan-3-yl)-8-fluoro-2-(((2R,7aS)-2-fluorohexahydro-1H-pyrrolizin-7a-yl)methoxy)-7-(2-isopropylpyridin-3-yl)pyrido[4,3-d]pyrimidine] gave an IC50 of 7750 nM.

As to `Oc1cc(-c2ncc3c(N4CC5C[C@@H](n6cncn6)C(C4)N5)nc(OC[C@@]45CCCN4C[C@H](F)C5)nc3c2F)c2ccccc2c1` (mixture of isomers) [Example 333, 4-(4-((6R)-6-(1H-1,2,4-triazol-1-yl)-3,8-diazabicyclo[3.2.1]octan-3-yl)-8-fluoro-2-((2-fluorotetrahydro-1H-pyrrolizin-7a(5H)-yl)methoxy)pyrido[4,3-d]pyrimidin-7-yl)naphthalen-2-ol (racemic, trans)], the IC50 stood at 450 nM.

`C#Cc1c(F)ccc2cc(O)cc(-c3ncc4c(N5C[C@H]6CC[C@@H](C5)N6)nc(OCC56CCCN5CCC6)nc4c3F)c12` [Example 232, 4-(4-((1R,5S)-3,8-diazabicyclo[3.2.1]octan-3-yl)-8-fluoro-2-((tetrahydro-1H-pyrrolizin-7a(5H)-yl)methoxy)pyrido[4,3-d]pyrimidin-7-yl)-5-ethynyl-6-fluoronaphthalen-2-ol] came in with an IC50 of 0.6 nM.

Molecule `O[C@@H]1C[C@@H]2CN(c3nc(OCCc4nccn4C(F)F)nc4c(F)c(-c5cccc6cccc(Cl)c56)ncc34)C[C@H]1N2` [Example 166, (1R,5R,6R)-3-(7-(8-chloronaphthalen-1-yl)-2-(2-(1-(difluoromethyl)-1H-imidazol-2-yl)ethoxy)-8-fluoropyrido[4,3-d]pyrimidin-4-yl)-3,8-diazabicyclo[3.2.1]octan-6-ol] registered an IC50 of 1290 nM.

Molecule `Cc1ccc2c(-c3ncc4c(N5C[C@H]6CC[C@@H](C5)N6)nc(OC[C@@H]5CCCN5C)nc4c3F)cccc2c1` [Example 207, 4-((1R,5S)-3,8-diazabicyclo[3.2.1]octan-3-yl)-8-fluoro-7-(6-methylnaphthalen-1-yl)-2-(((S)-1-methylpyrrolidin-2-yl)methoxy)pyrido[4,3-d]pyrimidine] gave an IC50 of 4910 nM.

With `CC(C)c1ncccc1-c1ncc2c(N3C[C@H]4CC[C@@H](C3)N4)nc(OCC34CCCN3CCC4)nc2c1F` [Example 307, 4-((1R,5S)-3,8-diazabicyclo[3.2.1]octan-3-yl)-8-fluoro-2-((hexahydro-1H-pyrrolizin-7a-yl)methoxy)-7-(2-isopropylpyridin-3-yl)pyrido[4,3-d]pyrimidine], the IC50 turned out to be 3160 nM.

On to `OCC#Cc1cccc2cccc(-c3ncc4c(N5C[C@H]6CC[C@@H](C5)N6)nc(OCC56CCCN5CCC6)nc4c3F)c12` [Example 193, 3-(8-(4-((1R,5S)-3,8-diazabicyclo[3.2.1]octan-3-yl)-8-fluoro-2-((tetrahydro-1H-pyrrolizin-7a(5H)-yl)methoxy)pyrido[4,3-d]pyrimidin-7-yl)naphthalen-1-yl)prop-2-yn-1-ol], for which the IC50 came out at 12.5 nM.

Regarding `Cc1ccccc1-c1ncc2c(N3C[C@H]4CC[C@@H](C3)N4)nc(OCC34CCCN3CCC4)nc2c1F` [Example 272, 4-((1R,5S)-3,8-diazabicyclo[3.2.1]octan-3-yl)-8-fluoro-2-((hexahydro-1H-pyrrolizin-7a-yl)methoxy)-7-(o-tolyl)pyrido[4,3-d]pyrimidine], the IC50 worked out at 1180 nM.

Take `C#Cc1cccc2cccc(-c3ncc4c(N5C[C@H]6CC[C@@H](C5)N6)nc(OC[C@@H]5CCCN5C)nc4c3F)c12` [Example 206, 4-((1R,5S)-3,8-diazabicyclo[3.2.1]octan-3-yl)-7-(8-ethynylnaphthalen-1-yl)-8-fluoro-2-(((S)-1-methylpyrrolidin-2-yl)methoxy)pyrido[4,3-d]pyrimidine]: the IC50 turned out to be 5.1 nM.

On to `Oc1cc(-c2ncc3c(N4CC5CCC(C4)N5)nc(OCC45CCCCN4CCC5)nc3c2F)c2ccccc2c1` (stereo not drawn) [Example 463, 4-(4-(3,8-diazabicyclo[3.2.1]octan-3-yl)-8-fluoro-2-((octahydroindolizin-8a-yl)methoxy)pyrido[4,3-d]pyrimidin-7-yl)naphthalen-2-ol], for which the IC50 was found to be 0.012 nM.

In turn, `C#Cc1cccc2cccc(-c3ncc4c(N5C[C@H]6CC[C@@H](C5)N6)nc(OC[C@]56CCCN5C[C@@H](F)C6)nc4c3F)c12` [Example 205, 4-((1R,5S)-3,8-diazabicyclo[3.2.1]octan-3-yl)-7-(8-ethynylnaphthalen-1-yl)-8-fluoro-2-(((2S,7aR)-2-fluorotetrahydro-1H-pyrrolizin-7a(5H)-yl)methoxy)pyrido[4,3-d]pyrimidine] had an IC50 of 1.2 nM.

`CN1CCC[C@H]1COc1nc(N2CC3C[C@@H](O)C(C2)N3)c2cnc(-c3cc(O)cc4ccccc34)c(F)c2n1` (stereo partly drawn) [Example 31, 3-(8-fluoro-7-(3-hydroxynaphthalen-1-yl)-2-(((S)-1-methylpyrrolidin-2-yl)methoxy)pyrido[4,3-d]pyrimidin-4-yl)-3,8-diazabicyclo[3.2.1]octan-6-ol] registered an IC50 of 1.6 nM.

For `C[C@H]1C[C@@H]1c1ccccc1-c1ncc2c(N3C[C@H]4CC[C@@H](C3)N4)nc(OCC34CCCN3CCC4)nc2c1F` [Example 289, 4-((1R,5S)-3,8-diazabicyclo[3.2.1]octan-3-yl)-8-fluoro-2-((hexahydro-1H-pyrrolizin-7a-yl)methoxy)-7-(2-((1S,2S)-2-methylcyclopropyl)phenyl)pyrido[4,3-d]pyrimidine], the IC50 was 218 nM.
